One block for each compound: values may come before it.
Assays:
[1] = target: T1, GLUT1 (Homo sapiens, UniProt P11166); test: cis-inhibition assay of [14C]-D-glucose uptake (GLUT1 affinity) in CAL 27 cells; assay type: cell-based; conditions: incubation time 5 min
T1 construct: host or cells: CAL 27
T1 sequence (P11166 1-492): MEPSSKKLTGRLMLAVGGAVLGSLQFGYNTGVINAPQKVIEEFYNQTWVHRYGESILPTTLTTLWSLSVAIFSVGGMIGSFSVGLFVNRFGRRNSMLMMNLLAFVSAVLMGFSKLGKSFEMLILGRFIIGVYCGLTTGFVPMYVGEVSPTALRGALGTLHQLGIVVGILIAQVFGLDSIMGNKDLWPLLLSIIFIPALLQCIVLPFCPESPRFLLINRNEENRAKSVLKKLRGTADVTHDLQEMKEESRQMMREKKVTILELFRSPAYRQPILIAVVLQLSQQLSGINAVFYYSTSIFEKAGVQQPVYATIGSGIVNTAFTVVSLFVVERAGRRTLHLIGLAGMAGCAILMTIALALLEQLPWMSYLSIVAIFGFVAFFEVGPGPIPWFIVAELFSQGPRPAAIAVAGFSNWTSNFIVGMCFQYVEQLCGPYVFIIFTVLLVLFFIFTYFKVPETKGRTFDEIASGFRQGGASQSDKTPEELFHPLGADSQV
Description: GLUT affinity: In a strategy targeting the GLUTs, it is important to study whether the monosaccharide delivery agents will be able to compete for the transporters with the high D-glucose levels found in blood. For these purposes, we utilized our previously developed cis-inhibition assay in the CAL 27 cell line. In addition to having accurate protocols for assessment of GLUT-affinity, we have previously studied the GLUT1 expression and verified its function in the CAL 27 cell line. Thus, a strong foundation was available for the current study and we employed an identical protocol herein in the assessment of GLUT affinity, i.e., in assessing to which extent the delivery agents will be able to compete for the GLUTs against the natural substrate D-glucose.
(§1) The CAL 27 (ATCC CRL-2095) cells used in all assays were acquired from ATCC (Manassas, VA, USA) and cultured in Dulbecco’s Modified Eagle Medium (DMEM) supplemented with L-glutamine (2.0 mM), heat-inactivated fetal bovine serum (10%), and penicillin (50 U/mL)-streptomycin (50 μg/mL) at 37 °C with 5% CO2 and 95% relative humidity.
The GLUT1 affinity assay was conducted following our previously established protocol. Stock solutions of the glycoconjugates were prepared in DMSO. From the stock solutions, the samples employed in the study were prepared by diluting the stock solutions in glucose-free HBSS-buffer to reach concentrations of 0.1–1800 μM. The cells were incubated at RT for 5 min with glycoconjugates 1–4, BSH or BPA over the concentration range given above. The glucose-free HBSS buffer as such was used as a blank control. In more detail, the solutions included 1.8 μM ([…]) of [^14C]-D-glucose in 250 μL of glucose-free HBSS (Hanks’ balanced salt solution). Ice-cold buffer was used for quenching. Cell lysis was performed using 0.1 M NaOH (250 μL) and then mixed with an emulsifier safe cocktail (1.0 mL) (PerkinElmer, Waltham, MA, USA). The radioactivity was measured with a liquid scintillation counter (MicroBeta2 counter, PerkinElmer, Waltham, MA, USA), and the IC50 values were calculated through nonlinear regression analysis.

[2] = tested on: CAL 27 cells; test: Boron delivery capacity (boron uptake) by ICP-MS; assay type: cell-based, human; conditions: 10–400 μM, 5 min and 120 min, compared with BPA and BSH and within the series
Protocol: Boron delivery capacity: A central property of boron delivery agents is their boron delivery capacity. […] Herein, we studied the boron delivery capacity at two time points (5 min, and 120 min) over the concentration range of 10–400 μM (see summary in Figure 4). Our previously employed protocol was utilized in order to be able to compare the results to those obtained earlier. In short, after quenching of the incubation, washing, lysis, and digestion with nitric acid, the boron content could be determined by ICP-MS.
as §1
The boron uptake studies were performed according to our earlier reported protocol. The samples used in the boron uptake studies were prepared as described above for the affinity studies. The cells were preincubated. Glycoconjugates 1–4 at various concentrations (10–400 μM in 250 μL of HBSS) were added, and incubation continued for […] 120 min at RT. […] Milli-Q water (USF Elga Purelab Ultra, Veolia Water Technologies, High Wycombe, UK) was added to bring the sample volume to 10 mL, and the boron content was measured in triplicates using ICP-MS. […]

[3] = Plasma stability, mouse plasma; assay type: in vitro ADME; conditions: 50 μM
Protocol: These studies provide important insights into the stability and behavior of the delivery agent in a biological setting, which is a key factor at later stages of the development pipeline. The serum stability studies were performed in both human and mouse plasma at a set concentration of 50 μM over a time period of 24 h. Propantheline (5 μM) was utilized as a control substrate for validating the assay. […] In human plasma, the stability profile was distinct. […] While the boron delivery agent 4 does decompose in human plasma over time, the rate at which this occurs is acceptable when taking into account that the recommended guidelines for FDG imaging, thus tumor delivery, is between 55–75 min post administration. […]
10 mM working solutions of the test compound was prepared in DMSO and a 1 mM working solution of the control compound propantheline was prepared in acetonitrile. […] Peak area ratios were determined from extracted ion chromatograms. Percent compounds remaining at each time point were calculated by the following equation:Remaining Percentage t h (%) = Peak Area Ratio t h/Peak Area Ratio 0 h × 100 where Peak Area Ratio t h is the peak area ratio of control and test compound at t h; Peak Area Ratio 0 h is the peak area ratio of control and test compound at zero time point.

[4] = Plasma stability, human plasma; assay type: in vitro ADME; conditions: 50 μM
Protocol: These studies provide important insights into the stability and behavior of the delivery agent in a biological setting, which is a key factor at later stages of the development pipeline. The serum stability studies were performed in both human and mouse plasma at a set concentration of 50 μM over a time period of 24 h. Propantheline (5 μM) was utilized as a control substrate for validating the assay. […] In human plasma, the stability profile was distinct. […] While the boron delivery agent 4 does decompose in human plasma over time, the rate at which this occurs is acceptable when taking into account that the recommended guidelines for FDG imaging, thus tumor delivery, is between 55–75 min post administration. Nevertheless, the ortho-carboranylmethyl-substituent is likely to affect the pharmacokinetic properties of the delivery agents and thus comprehensive biodistribution studies will be needed in the future to assess these factors in more detail.
10 mM working solutions of the test compound was prepared in DMSO and a 1 mM working solution of the control compound propantheline was prepared in acetonitrile. 4 µL of working solutions was spiked to 796 µL of pre-incubated plasma to reach a final concentration of 50 µM or 5 µM. The final concentration of solvent was 0.5%. 50 µL aliquots of the spiked plasma were added into new tubes for 1, 4, 8 and 24 h and incubated at 37 °C water bath with shaking at 60 rpm. The assay was performed in duplicate. The reaction was stopped by adding 300 µL of RT quench solution (acetonitrile containing internal standards (IS, 100 nM Alprazolam, 500 nM Labetalol, and 2 µM Ketoprofen)) to the spiked plasma samples at the appointed time points. […] Peak area ratios were determined from extracted ion chromatograms. Percent compounds remaining at each time point were calculated by the following equation:Remaining Percentage t h (%) = Peak Area Ratio t h/Peak Area Ratio 0 h × 100 where Peak Area Ratio t h is the peak area ratio of control and test compound at t h; Peak Area Ratio 0 h is the peak area ratio of control and test compound at zero time point.

[5] = Plasma protein binding, equilibrium dialysis, human plasma; assay type: in vitro ADME; conditions: 1 μM, results similar in human and mouse
Protocol: (§2) Through the plasma protein binding assay, we sought to provide a baseline for future assessment of the ADME-properties of FDM derivative 4. In more detail, this assay would let us evaluate to which extent the FDM derivative 4 would remain in an unbound state in the presence of plasma proteins. These studies were performed through the standard equilibrium dialysis protocol at the time points of 0 and 6 h employing a concentration of 1 μM. While the studies were performed in both human and mouse plasma, the results were similar in both cases. Being a relatively lipophilic species, it was unsurprising that the FDM derivative 4 bound in significant amounts to the plasma proteins (~97% bound vs. 3% unbound).
The working solutions of test compounds were prepared in DMSO at the concentrations of 10 mM and the working solution of control compound ketoconazole was prepared in DMSO at the concentration of 200 μM. 3 μL of the working solutions were removed to mix with 597 μL of plasma to achieve a final concentration of 1 μM or 50 μM (0.5% DMSO). The plasma samples were vortexed thoroughly. […]

[6] = Plasma protein binding, equilibrium dialysis, mouse plasma; assay type: in vitro ADME; conditions: 1 μM, results similar in human and mouse
Protocol: as §2
The working solutions of test compounds were prepared in DMSO at the concentrations of 10 mM and the working solution of control compound ketoconazole was prepared in DMSO at the concentration of 200 μM. 3 μL of the working solutions were removed to mix with 597 μL of plasma to achieve a final concentration of 1 μM or 50 μM (0.5% DMSO). The plasma samples were vortexed thoroughly. A total of 50 µL of the spiked plasma sample was transferred to 50 μL of blank buffer, and then either incubated for 6 h (37 °C with 5% CO2) or immediately quenched by the addition of 300 μL of RT quench solution (acetonitrile containing internal standards (IS, 200 nM labetalol, 100 nM tolbutamide and 100 nM ketoprofen) to precipitate protein and the mixture was vortex for 5 min.
The dialysis membranes were soaked in ultrapure water for 60 min to separate strips, then in 20% ethanol for 20 min, and finally in dialysis buffer for 20 min. The dialysis apparatus was assembled according to the manufacturer’s instructions. Each cell was filled with 120 μL of spiked plasma sample and dialyzed against equal volume of dialysis buffer (PBS). The assay was performed in duplicate. The dialysis plate was sealed and incubated in an incubator at 37 °C with 5% CO2 at 100 rpm for 6 h. […]

IC50 [1]: 59.5 µM
conjugate remaining intact ([3]; 1 h): 84.7%
conjugate remaining intact ([3]; 24 h): 60%
stability in human plasma ([4]; 1 h): remained stable
remained intact ([4]; 4 h): 86.7%
remained intact ([4]; 24 h): 39.5%
bound to plasma proteins [5]: ~ 97%
unbound [5]: 3%
remained in the bound state ([6]; 6 h mark): 80–87%
bound to plasma proteins ([6]; equilibrium dialysis): ~ 97%
unbound ([6]; equilibrium dialysis): 3%
Compound: 2-deoxy-2-fluoro-4-O-carboranylmethyl-D-mannopyranose [Compound 4]
boron delivery capacity [2]: best delivery agent out of the series synthesized

IC50 [1]: > 1000 µM
Compound: OC[C@H]1OC(O)[C@H](O)[C@@H](O)[C@@H]1O (stereo partly shown) [D -Glc, reference compound]

Further lines, the compound ahead of its results:

Compound: 2-deoxy-2-fluoro-4-O-carboranylmethyl-D-glucopyranose [Compound 2]
IC50 [1]: 57.5 µM

Compound: 2-deoxy-2-fluoro-6-O-carboranylmethyl-D-glucopyranose [Compound 1]
IC50 [1]: 78.3 µM

Compound: 2-deoxy-2-fluoro-6-O-carboranylmethyl-D-mannopyranose [Compound 3]
IC50 [1]: 62.6 µM

From article PMC11397260, “Towards New Delivery Agents for Boron Neutron Capture Therapy: Synthesis and In Vitro Evaluation of a Set of Fluorinated Carbohydrate Derivatives” (Molecules, 2024)
